Laboratory results reported in patent publication US20230086702A1, “SUBSTITUTED 2-AMINO-PYRAZOLYL-[1,2,4]TRIAZOLO[1,5A]PYRIDINE DERIVATIVES AND USE THEREOF” (The Johns Hopkins University, priority 2019, published 2023).

Tests used:
DLK = target: T1, DLK (Homo sapiens, UniProt Q12852); assay: DLK biochemical assay (TR-FRET, MKK7 phosphorylation)
T1 construct: 10 nM DLK, catalytic domain, Carna Biosiences; purchased Carna Biosciences ('Carna Biosiences' [sic])
T1 sequence (Q12852 125-366 limits assumed): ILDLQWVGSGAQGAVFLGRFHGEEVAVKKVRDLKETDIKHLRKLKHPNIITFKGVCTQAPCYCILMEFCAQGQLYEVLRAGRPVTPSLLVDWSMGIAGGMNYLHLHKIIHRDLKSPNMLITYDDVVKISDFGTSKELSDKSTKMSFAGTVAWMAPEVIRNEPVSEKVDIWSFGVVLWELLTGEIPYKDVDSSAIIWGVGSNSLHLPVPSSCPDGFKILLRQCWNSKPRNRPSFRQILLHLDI
Protocol: (§1) DLK assay is a biochemical assay format designed to screen for inhibitors of DLK. Enzymatic activity of DLK is measured by monitoring phosphorylation of the physiological substrate MKK7 (MAP2K7, Dual specificity mitogen-activated protein kinase kinase 7). Phosphorylation is detected by a TR-FRET system whereby His-tagged MKK7 is labeled by a XL665-labeled anti-His antibody (FRET acceptor, emission 665 nm). DLK phosphorylates MKK7 at T275/S277, which is detected by an Eu-labeled anti-phospho-MKK7 (T275/S277) antibody (FRET donor, excitation 340 nm). Phosphorylation of MKK7 results in an increased TR-FRET signal (Ratio XL665-channel/Eu-channel) and inhibition of enzymatic activity of DLK decreases the TR-FRET signal.
Assay Protocol for 1536 MTP format: test compounds are predispensed (60 nl) in test plates; +3 μl DLK solution (10 nM DLK, catalytic domain, Carna Biosiences, 0.6 mM DTT in assay buffer); +2 μl substrate solution (15 nM MKK7, LDB; 60 μM ATP; 0.4 mM DTT in assay buffer); 90 min incubation at RT; +2 μl detection mix (5 nM XL665-labeled anti-His antibody, Cisbio; 0.1 nM Eu-labeled anti-phospho-MKK7 (T275/S277), Cisbio/Millipore in detection buffer); 16 h incubation at 37° C.; endpoint measurement BMG (HTRF).
(§2) Assay Protocol for 384 low volume MTP format: 1 μl of test compounds is pipetted into test plate; +5 μl DLK solution (10 nM DLK, catalytic domain, Carna Biosiences in assay buffer); +5 μl substrate solution (15 nM MKK7, LDB; 60 μM ATP, in assay buffer); 90 min incubation at RT; +9 μl detection mix (20 nM XL665-labeled anti-His antibody, Cisbio; 0.4 nM Eu-labeled anti-phospho-MKK7 (T275/S277), Cisbio/Millipore in detection buffer); 16 h incubation at 4° C.; endpoint measurement BMG (HTRF).
(§3) All indicated concentrations final concentrations.
(§4) Assay buffer (384 format): 50 mM Hepes pH 7.5, 10 mM MgCl2, 1 mM EGTA, 1 mM DTT, 0.01% Triton X-100, 0.01% BSA, 1:500 Smart Block.
(§5) Detection buffer: 25 mM Tris/HCl pH 7.5, 100 mM EDTA, 100 mM NaCl, 200 mM KF, 0.01% Tween 20, 1:500 Smart Block.

LZK = target: T2, LZK (Homo sapiens, UniProt O43283); assay: LZK biochemical assay (TR-FRET, MKK7 phosphorylation)
T2 construct: 10 nM LZK, catalytic domain, Carna Biosiences in assay buffer; purchased Carna Biosciences ('Carna Biosiences' [sic])
T2 sequence (O43283 168-409 limits assumed): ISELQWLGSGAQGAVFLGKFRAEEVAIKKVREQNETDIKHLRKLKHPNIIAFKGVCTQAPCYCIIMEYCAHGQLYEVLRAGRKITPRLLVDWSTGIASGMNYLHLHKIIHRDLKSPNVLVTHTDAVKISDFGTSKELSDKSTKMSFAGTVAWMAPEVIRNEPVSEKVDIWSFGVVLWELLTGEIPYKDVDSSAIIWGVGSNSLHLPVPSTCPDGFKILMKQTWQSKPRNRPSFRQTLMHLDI
Protocol: as §1, with “LZK” for “DLK”, “LZK.” for “DLK.”, “T275/S277” for “T275/S277,”
as §2, with “compound” for “compounds”, “LZK” for “DLK”, “LZK,” for “DLK,”, “15” for “60”, “+5” for “+9”, “32°” for “4°”
as §3, §4, §5

| Compound | IC50 (DLK) | IC50 (LZK) |
| --- | --- | --- |
| Nc1nc2c(-c3cc(CO)ccc3Cl)cc(-c3cnn(C(c4ccc(C(F)(F)F)nc4)C4CCOCC4)c3)cn2n1 (single isomer, unassigned) [II-5, {3-[2-Amino-6-(1-{tetrahydro-2H-pyran-4-yl[6-(trifluoromethyl)pyridin-3-yl]methyl}-1H-pyrazol-4-yl)[1,2,4]triazolo[1,5-a]pyridin-8-yl]-4-chlorophenyl}methanol] | 2.3 nM | 1.7 nM |
| CCC(c1ccc(C(F)F)nc1)n1cc(-c2cc(-c3ccc(C4CC4)nc3)n3nc(N)nc3c2)cn1 (single isomer, unassigned) [II-69, 5-(6-Cyclopropylpyridin-3-yl)-7-(1-{1-[6-(difluoromethyl)pyridin-3-yl]propyl}-1H-pyrazol-4-yl)[1,2,4]triazolo[1,5-a]pyridin-2-amine] | 4.8 nM | 9.4 nM |
| CS(=O)(=O)c1cccc(-c2cc(-c3cnn(C(c4ccc(C(F)(F)F)nc4)C4CCOCC4)c3)cn3nc(N)nc23)c1 (single isomer, unassigned) [II-14, 8-[3-(Methylsulfonyl)phenyl]-6-(1-{tetrahydro-2H-pyran-4-yl[6-(trifluoromethyl)pyridin-3-yl]methyl}-1H-pyrazol-4-yl)[1,2,4]triazolo[1,5-a]pyridin-2-amine] | 0.6 nM | 1.3 nM |
| CC(C)C(c1ccc(C(F)(F)F)nc1)n1cc(-c2cc(-c3ccc(C4CC4)nc3)c3nc(N)nn3c2)cn1 (racemic) [II-43, 8-(6-Cyclopropylpyridin-3-yl)-6-(1-{2-methyl-1-[6-(trifluoromethyl)pyridin-3-yl]propyl}-1H-pyrazol-4-yl)[1,2,4]triazolo[1,5-a]pyridin-2-amine] | 4.2 nM | 26 nM |
| Nc1nc2cc(-c3cnn(C(c4ccc(C(F)(F)F)nc4)C4CCOCC4)c3)cc(-c3ccc(=O)n(CC(F)F)c3)n2n1 (single isomer, unassigned) [II-187, 5-[2-Amino-7-(1-{tetrahydro-2H-pyran-4-yl[6-(trifluoromethyl)pyridin-3-yl]methyl}-1H-pyrazol-4-yl)[1,2,4]triazolo[1,5-a]pyridin-5-yl]-1-(2,2-difluoroethyl)pyridin-2(1H)-one] | 0.2 nM | 0.5 nM |
| CC[C@@H](c1ccccc1)n1cc(-c2cc(-c3cnn(CC(F)(F)F)c3)n3nc(N)nc3c2)cn1 [II-127, 7-{1-[(1S)-1-Phenylpropyl]-1H-pyrazol-4-yl}-5-[1-(2,2,2-trifluoroethyl)-1H-pyrazol-4-yl][1,2,4]triazolo[1,5-a]pyridin-2-amine] | 8.4 nM | 99 nM |
| CC(C)C(c1ccc(C(F)(F)F)nc1)n1cc(-c2cc(-c3ccc(C4(O)CCC4)nc3)n3nc(N)nc3c2)cn1 (single isomer, unassigned) [II-81, 1-{5-[2-Amino-7-(1-{2-methyl-1-[6-(trifluoromethyl)pyridin-3-yl]propyl}-1H-pyrazol-4-yl)[1,2,4]triazolo[1,5-a]pyridin-5-yl]pyridin-2-yl}cyclobutan-1-ol] | 4 nM | 2.4 nM |
| Nc1nc2c(-c3cnn(CC(F)(F)F)c3)cc(-c3cnn(C4CCN(C5COC5)CC4)c3)cn2n1 [II-120, 6-{1-[1-(Oxetan-3-yl)piperidin-4-yl]-1H-pyrazol-4-yl}-8-[1-(2,2,2-trifluoroethyl)-1H-pyrazol-4-yl][1,2,4]triazolo[1,5-a]pyridin-2-amine] | 240 nM | 140 nM |
| CC(C)C(c1ccc(C(F)(F)F)nc1)n1cc(-c2cc(-c3ccc(C4(O)CCC4)nc3)n3nc(N)nc3c2)cn1 (single isomer, unassigned) [II-82, 1-{5-[2-Amino-7-(1-{2-methyl-1-[6-(trifluoromethyl)pyridin-3-yl]propyl}-1H-pyrazol-4-yl)[1,2,4]triazolo[1,5-a]pyridin-5-yl]pyridin-2-yl}cyclobutan-1-ol] | 42 nM | 42 nM |
| CCC(c1ccc(C(F)(F)F)nc1)n1cc(-c2cc(-c3cnn(CC(F)F)c3)c3nc(N)nn3c2)cn1 (racemic) [II-108, 8-[1-(2,2-Difluoroethyl)-1H-pyrazol-4-yl]-6-(1-{1-[6-(trifluoromethyl)pyridin-3-yl]propyl}-1H-pyrazol-4-yl)[1,2,4]triazolo[1,5-a]pyridin-2-amine] | 6.3 nM | 37 nM |
| CCC(c1ccc(C(F)(F)F)nc1)n1cc(-c2cc(-c3ccc(=O)n(C(F)F)c3)n3nc(N)nc3c2)cn1 (single isomer, unassigned) [II-181, 5-[2-Amino-7-(1-{1-[6-(trifluoromethyl)pyridin-3-yl]propyl}-1H-pyrazol-4-yl)[1,2,4]triazolo[1,5-a]pyridin-5-yl]-1-(difluoromethyl)pyridin-2(1H)-one] | 2.7 nM | 5.4 nM |
| Nc1nc2cc(-c3cnn(Cc4ccccc4)c3)cc(-c3cnn(C4CCOCC4)c3)n2n1 [II-126, 7-(1-Benzyl-1H-pyrazol-4-yl)-5-[1-(tetrahydro-2H-pyran-4-yl)-1H-pyrazol-4-yl][1,2,4]triazolo[1,5-a]pyridin-2-amine] | 60 nM | 220 nM |
| Nc1nc2c(-c3ccc(=O)n(CC(F)F)c3)cc(-c3cnn(C(c4ccc(C(F)(F)F)nc4)C4CCOCC4)c3)cn2n1 (single isomer, unassigned) [II-157, 5-[2-Amino-6-(1-{tetrahydro-2H-pyran-4-yl[6-(trifluoromethyl)pyridin-3-yl]methyl}-1H-pyrazol-4-yl)[1,2,4]triazolo[1,5-a]pyridin-8-yl]-1-(2,2-difluoroethyl)pyridin-2(1H)-one] | 5.9 nM | 12 nM |
| CCC(c1ccc(C(F)F)nc1)n1cc(-c2cc(-c3ccc(C(F)(F)F)nc3)n3nc(N)nc3c2)cn1 (racemic) [II-61, 7-(1-{1-[6-(Difluoromethyl)pyridin-3-yl]propyl}-1H-pyrazol-4-yl)-5-[6-(trifluoromethyl)pyridin-3-yl][1,2,4]triazolo[1,5-a]pyridin-2-amine] | 65 nM | 62 nM |
| CC(C)C(c1ccc(C(F)(F)F)nc1)n1cc(-c2cc(-c3cnn(C4CCCC4)c3)n3nc(N)nc3c2)cn1 (single isomer, unassigned) [II-144, 5-(1-Cyclopentyl-1H-pyrazol-4-yl)-7-(1-{2-methyl-1-[6-(trifluoromethyl)pyridin-3-yl]propyl}-1H-pyrazol-4-yl)[1,2,4]triazolo[1,5-a]pyridin-2-amine] | 27 nM | 57 nM |
| CCC(c1ccc(N2CCOCC2)cc1)n1cc(-c2cc(-c3cnn(CC(F)(F)F)c3)c3nc(N)nn3c2)cn1 (single isomer, unassigned) [II-103, 6-(1-{1-[4-(Morpholin-4-yl)phenyl]propyl}-1H-pyrazol-4-yl)-8-[1-(2,2,2-trifluoroethyl)-1H-pyrazol-4-yl][1,2,4]triazolo[1,5-a]pyridin-2-amine] | 64 nM | 160 nM |
